Measured values as given in patent US5162336A, “Tetrahydro-pyrido-indoles as cholecystokinin and gastrin antagonists” (Rhone-Poulenc Rorer Pharmaceuticals Inc., priority 1990, dated 1992).

Molecular target: T1, CCK-A receptor (Rattus norvegicus, UniProt P30551)
T1 construct: from tissue; host or cells: pancreas membranes of Sprague-Dawley rat
T1 sequence (P30551 1-444): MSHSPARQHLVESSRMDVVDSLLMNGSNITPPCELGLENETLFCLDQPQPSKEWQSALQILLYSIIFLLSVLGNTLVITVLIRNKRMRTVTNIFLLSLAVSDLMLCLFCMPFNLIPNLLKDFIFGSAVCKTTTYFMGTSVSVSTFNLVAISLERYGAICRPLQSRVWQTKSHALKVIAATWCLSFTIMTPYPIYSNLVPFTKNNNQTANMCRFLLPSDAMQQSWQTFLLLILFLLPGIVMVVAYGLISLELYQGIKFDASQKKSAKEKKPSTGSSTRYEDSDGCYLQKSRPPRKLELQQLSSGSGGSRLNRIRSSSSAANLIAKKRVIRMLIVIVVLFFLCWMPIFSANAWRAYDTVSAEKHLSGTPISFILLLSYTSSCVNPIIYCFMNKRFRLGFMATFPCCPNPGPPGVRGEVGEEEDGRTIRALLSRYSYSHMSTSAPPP
Experiment: CCK-A receptor binding assay (displacement of 3H-L-364,718 from rat pancreas membranes)
Set-up: species or system Sprague-Dawley rat
Conditions: 3H-L-364,718 0.2 nM, 37° C., 30 min, read-out: In vitro Binding Data IC50 CCK
Outline: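 Rat pancreas membranes incubated 30 min at 37 °C with 0.2 nM 3H-L-364,718 in 50 mM Tris pH 7.7, 5 mM MgCl2, 5 mM DTT, 0.14 mg/ml bacitracin, 2 mg/ml BSA. Nonspecific binding defined by 300 nM unlabeled L-364,718; rapid filtration and scintillation counting, triplicates.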

IC50: 100 µM
Structure (SMILES): CC(C)C[C@H](NC(=O)[C@H]1Cc2c([nH]c3ccccc23)CN1C(=O)Nc1cccc2ccccc12)C(=O)N[C@@H](CC(=O)O)C(N)=O [Example 67, N-[(3R)-2-(1-naphthylcarbamoyl)-1,2,3,4-tetrahydro-9H-pyrido[3,4-b]indole-3-carboxyl]-L-leucyl-L-aspartic acid amide]
